Measurements published in patent US6083677A, “Photographic element containing yellow dye-forming photographic coupler” (Eastman Kodak Company, priority 1998, dated 2000).

Tests used:
[1] = Spectrophotometric response of dyes in dilute acetonitrile solution; type: physicochemical; details: for Extinction: in M-1 cm-1 (unit assumed)
Source text: As mentioned previously, many characteristics of a photographic image depend upon the spectral response of the dyes forming that image. The greater the molar extinction of an image-forming dye the less silver is needed to produce that dye; lower silver laydowns may lead to sharper photographic images. The color of a dye depends upon the position of its maximum light absorption (λ-max). With yellow dyes, the deeper (more bathochromic) the λmax of the dye the more orange the color of the dye. Orange dyes cannot be employed to effectively reproduce bright lemon yellows, thus lighter yellow dyes arc preferred for better color reproduction. Finally, the ideal yellow dye absorbs only light in the blue portion of the visible spectrum; yellow dyes that absorb substantial amounts of green light appear desaturated and therefore yield poorer color reproduction. The bathochromic (long wavelength side) one-half bandwidth (B1/2BW) is a good measure of the degree of unwanted absorption of a yellow dye. The B1/2BW is the distance on the long wavelength side of the dye's spectral response curve, in nanometers, from the λmax to the wavelength of 1/2 the maximum absorption. The smaller the B1/2BW distance, the more sharp-cutting is the spectral response of a dye and the better the color reproduction available from the dye.
^a. Spectrophotometric data derived from dilute acetonitrile solution
of chromatographically homogenous dyes; see Table 3 for invention dye

[2] = Accelerated solution test of acid hydrolysis of yellow dyes (HPLC); type: physicochemical; parameters: kobs rate of hydrolysis: unit not given here; details: 1 mM dye in 6% Triton X100, pH 2.0, phosphate buffer, 50° C.
Protocol: The hydrolytic stability or acid catalyzed decomposition of yellow azomethine dyes is an important pathway in the degradation of photographic images. It is believed that the stability of yellow dyes toward acidic hydrolysis is predictive of their stability in color photographic images.
The rates of hydrolysis of a variety of dyes have been measured using an accelerated solution test format. The dyes (1.0 mM dye in 6% Triton X-100®) in buffered acidic solutions (pH=2.0, μ=0.2, phosphate buffer) were held at 50° C. The rates of dye destruction were monitored using standard HPLC procedures.
^a. 1 mM dye in 6% Triton X100 ® (60 g/l octylphenoxy
polyethoxyethanols, Avg M.W. = 646) solution in pH 2.0, […],
phosphate buffer at 50° C.

For `CCCCc1ccc(NC(=O)C(=Nc2ccc(N(CC)CCNS(C)(=O)=O)cc2C)C(=O)c2ccn(-c3ccccc3)c2)cc1` [Cmp-1, reference compound], the “B1/2BW (bathochromic one-half bandwidth)” value [1] was 42 nm, the λmax [1] was 430 nm and the Extinction [1] was 12,800.
In the case of `CCCCc1ccc(NC(=O)C(=Nc2ccc(N(CC)CCNS(C)(=O)=O)cc2C)C(=O)c2cn(-c3ccccc3)cc2C)cc1` [Cmp-2, reference compound], the “B1/2BW (bathochromic one-half bandwidth)” value [1] is reported as 40 nm, the λmax [1] is reported as 428 nm and the Extinction [1] is reported as 13,900.
In the case of `CCCCc1ccc(NC(=O)C(=Nc2ccc(N(CC)CCNS(C)(=O)=O)cc2C)C(=O)c2cccn2-c2ccccc2)cc1` [Cmp-3, reference compound], the “B1/2BW (bathochromic one-half bandwidth)” value [1] is reported as 40 nm, the λmax [1] is reported as 426 nm and the Extinction [1] is reported as 13,700.
For `CCCCc1ccc(NC(=O)C(=Nc2ccc(N(CC)CCNS(C)(=O)=O)cc2C)C(=O)c2ccn(-c3ccccc3)c2C)cc1` [Cmp-4, reference compound], the “B1/2BW (bathochromic one-half bandwidth)” value [1] was 40 nm, the λmax [1] was 434 nm and the Extinction [1] was 12,600.
For `CCCCCCCCCCCCCCCCCCOc1ccc(S(=O)(=O)Nc2ccccc2Cl)cc1NC(=O)C(=Nc1ccc(N(CC)CCNS(C)(=O)=O)cc1C)C(=O)N1CCc2ccccc21` [Cmp-6, reference compound], the “kobs rate of hydrolysis” value [2] was 2.48 and the “t1/2 - time for 1/2 the dye to hydrolyze” value [2] was 78 h.
In the case of `CCCCc1ccc(NC(=O)C(=Nc2ccc(N(CC)CCNS(C)(=O)=O)cc2C)C(=O)C(C)(C)C)cc1` [Cmp-7, reference compound], the “B1/2BW (bathochromic one-half bandwidth)” value [1] is reported as 42 nm, the λmax [1] is reported as 428 nm and the Extinction [1] is reported as 11,800.
With `CCCCCCCCCCCCOC(=O)c1ccc(Cl)c(NC(=O)C(=Nc2ccc(N(CC)CCNS(C)(=O)=O)cc2C)C(=O)C(C)(C)C)c1` [Cmp-10, reference compound] the “kobs rate of hydrolysis” value [2] was 5.57 and the “t1/2 - time for 1/2 the dye to hydrolyze” value [2] was 35 h.
In the case of `CCCCCCCCCCCCCCCCS(=O)(=O)Nc1ccc(Cl)c(NC(=O)C(=Nc2ccc(N(CC)CCNS(C)(=O)=O)cc2C)C(=O)C(C)(C)C)c1` [Cmp-11, reference compound], the “kobs rate of hydrolysis” value [2] is reported as 12.1 and the “t1/2 - time for 1/2 the dye to hydrolyze” value [2] is reported as 16 h.
For `CCCCc1ccc(NC(=O)C(=Nc2ccc(N(CC)CCNS(C)(=O)=O)cc2C)C(=O)c2c(-c3ccccc3)n(C)c3ccccc23)cc1` [Coupler D-1], the “B1/2BW (bathochromic one-half bandwidth)” value [1] was 32 nm, the λmax [1] was 426 nm and the Extinction [1] was 19,700.
In the case of `CCCCc1ccc(NC(=O)C(=Nc2ccc(N(CC)CCNS(C)(=O)=O)cc2C)C(=O)c2c(C)[nH]c3ccccc23)cc1` [Coupler D-2], the “B1/2BW (bathochromic one-half bandwidth)” value [1] is reported as 37 nm, the λmax [1] is reported as 426 nm and the Extinction [1] is reported as 10,000.
With `CCCCc1ccc(NC(=O)C(=Nc2ccc(N(CC)CCNS(C)(=O)=O)cc2C)C(=O)c2cn(C)c3ccccc23)cc1` [Coupler D-3] the “B1/2BW (bathochromic one-half bandwidth)” value [1] was 39 nm, the λmax [1] was 428 nm and the Extinction [1] was 13,500.
With `CCCCc1ccc(NC(=O)C(=Nc2ccc(N(CC)CCNS(C)(=O)=O)cc2C)C(=O)c2c(C)n(C)c3ccccc23)cc1` [Coupler D-4] the “B1/2BW (bathochromic one-half bandwidth)” value [1] was 37 nm, the λmax [1] was 428 nm and the Extinction [1] was 16,200.
In the case of `CCCCc1ccc(NC(=O)C(=Nc2ccc(N(CC)CCNS(C)(=O)=O)cc2C)C(=O)c2c(C3CCCCC3)n(C)c3ccccc23)cc1` [Coupler D-5], the “B1/2BW (bathochromic one-half bandwidth)” value [1] is reported as 37 nm, the λmax [1] is reported as 428 nm and the Extinction [1] is reported as 16,800.
With `CCCCc1ccc(NC(=O)C(=Nc2ccc(N(CC)CCNS(C)(=O)=O)cc2C)C(=O)c2c3n(c4ccccc24)CCCC3)cc1` [Coupler D-6] the “B1/2BW (bathochromic one-half bandwidth)” value [1] was 38 nm, the λmax [1] was 426 nm and the Extinction [1] was 17,300.
In the case of `CCCCc1ccc(NC(=O)C(=Nc2ccc(N(CC)CCNS(C)(=O)=O)cc2C)C(=O)c2c(-c3ccccc3)[nH]c3ccccc23)cc1` [Coupler D-7], the “B1/2BW (bathochromic one-half bandwidth)” value [1] is reported as 35 nm, the λmax [1] is reported as 430 nm and the Extinction [1] is reported as 14,100.
In the case of `CCCCc1ccc(NC(=O)C(=Nc2ccc(N(CC)CCNS(C)(=O)=O)cc2C)C(=O)c2c(-c3ccccc3)n(-c3ccccc3)c3ccccc23)cc1` [Coupler D-8], the “B1/2BW (bathochromic one-half bandwidth)” value [1] is reported as 33 nm, the λmax [1] is reported as 426 nm and the Extinction [1] is reported as 16,600.
In the case of `CCCCc1ccc(NC(=O)C(=Nc2ccc(N(CC)CCNS(C)(=O)=O)cc2C)C(=O)c2c3c(n(C)c2-c2ccccc2)CCCC3)cc1` [Coupler D-9], the “B1/2BW (bathochromic one-half bandwidth)” value [1] is reported as 34 nm, the λmax [1] is reported as 422 nm and the Extinction [1] is reported as 19,300.
In the case of `CCCCc1ccc(NC(=O)C(=Nc2ccc(N(CC)CCNS(C)(=O)=O)cc2C)C(=O)c2c3c(n(C)c2-c2ccccc2)CCC3)cc1` [Coupler D-10], the “B1/2BW (bathochromic one-half bandwidth)” value [1] is reported as 35 nm, the λmax [1] is reported as 424 nm and the Extinction [1] is reported as 17,700.
For `CCCCc1ccc(NC(=O)C(=Nc2ccc(N(CC)CCNS(C)(=O)=O)cc2C)C(=O)c2c(-c3ccccc3)n(C)c3ccc(OC)cc23)cc1` [Coupler D-11], the “B1/2BW (bathochromic one-half bandwidth)” value [1] was 33 nm, the λmax [1] was 426 nm and the Extinction [1] was 21,300.
For `CCCCc1ccc(NC(=O)C(=Nc2ccc(N(CC)CCNS(C)(=O)=O)cc2C)C(=O)c2c(-c3ccccc3)n(C)c3ccc(C#N)cc23)cc1` [Coupler D-12], the “B1/2BW (bathochromic one-half bandwidth)” value [1] was 33 nm, the λmax [1] was 430 nm and the Extinction [1] was 20,100.
For `CCCCc1ccc(NC(=O)C(=Nc2ccc(N(CC)CCNS(C)(=O)=O)cc2C)C(=O)c2c(-c3ccccc3)oc3ccccc23)cc1` [Coupler D-13], the “B1/2BW (bathochromic one-half bandwidth)” value [1] was 47 nm, the λmax [1] was 444 nm and the Extinction [1] was 13,400.
With `CCCCc1ccc(NC(=O)C(=Nc2ccc(N(CC)CCNS(C)(=O)=O)cc2C)C(=O)c2c(-c3ccccc3)c3ccccc3n2C)cc1` [Coupler D-14] the “B1/2BW (bathochromic one-half bandwidth)” value [1] was 46 nm, the λmax [1] was 438 nm and the Extinction [1] was 11,900.
In the case of `CCCCCCCCCCCCS(=O)(=O)c1ccc(NC(=O)C(=Nc2ccc(N(CC)CCNS(C)(=O)=O)cc2C)C(=O)c2c(-c3ccccc3)n(C)c3ccccc23)c(Cl)c1` [Coupler D-15], the “kobs rate of hydrolysis” value [2] is reported as 0.17 and the “t1/2 - time for 1/2 the dye to hydrolyze” value [2] is reported as 1,150 hr.
For `CCCCCCCCCCCCn1c(-c2ccccc2)c(C(=O)C(=Nc2ccc(N(CC)CCNS(C)(=O)=O)cc2C)C(=O)Nc2ccc(S(C)(=O)=O)cc2Cl)c2ccccc21` [Coupler D-16], the “kobs rate of hydrolysis” value [2] was 0.38 and the “t1/2 - time for 1/2 the dye to hydrolyze” value [2] was 500 h.
In the case of `CCCCCCCCCCCCNS(=O)(=O)c1ccc(NC(=O)C(=Nc2ccc(N(CC)CCNS(C)(=O)=O)cc2C)C(=O)c2c(-c3ccccc3)n(C)c3ccccc23)c(Cl)c1` [Coupler D-17], the “kobs rate of hydrolysis” value [2] is reported as 0.31 and the “t1/2 - time for 1/2 the dye to hydrolyze” value [2] is reported as 610 h.
For `CCCCCCCCCCCCCCCCOC(=O)c1ccc(Cl)c(NC(=O)C(=Nc2ccc(N(CC)CCNS(C)(=O)=O)cc2C)C(=O)c2c(C)n(C)c3ccccc23)c1` [Coupler D-18], the “kobs rate of hydrolysis” value [2] was 9.63 and the “t1/2 - time for 1/2 the dye to hydrolyze” value [2] was 20 h.
For `CCCCCCCCCCCCCCCCOC(=O)c1ccc(Cl)c(NC(=O)C(=Nc2ccc(N(CC)CCNS(C)(=O)=O)cc2C)C(=O)c2c(C3CCCCC3)n(C)c3ccccc23)c1` [Coupler D-19], the “kobs rate of hydrolysis” value [2] was 1.91 and the “t1/2 - time for 1/2 the dye to hydrolyze” value [2] was 101 h.
